Values after ≈ are worked out from the molar mass of the structure shown.
Columns and labels:
[1] = system: Staphylococcus aureus; experiment: Antibacterial activity against Staphylococcus aureus ATCC 29213 assessed as bacterial growth inhibition; assay type: functional
[2] = system: Bacillus thuringiensis; experiment: Antibacterial activity against Bacillus thuringiensis SCSIO BT01 assessed as bacterial growth inhibition; assay type: functional
[3] = system: Escherichia coli; experiment: Antibacterial activity against Escherichia coli ATCC 25922 assessed as bacterial growth inhibition; assay type: functional
[4] = system: Bacillus subtilis; experiment: Antibacterial activity against Bacillus subtilis SCSIO BS01 assessed as bacterial growth inhibition; assay type: functional
[5] = system: Bacillus subtilis; experiment: Antibacterial activity against Bacillus subtilis ATCC 6633 assessed as bacterial growth inhibition; assay type: functional, organism-based
[6] = system: Staphylococcus aureus; experiment: Antibacterial activity against Staphylococcus aureus ATCC 25923 assessed as bacterial growth inhibition; assay type: functional, organism-based
[7] = system: Staphylococcus aureus; experiment: Antibacterial activity against methicillin-resistant Staphylococcus aureus assessed as bacterial growth inhibition; assay type: functional
[8] = system: HCT-116; experiment: Anticancer activity against human HCT-116 cells assessed as cell growth inhibition; assay type: functional, cell-based
[9] = Anticancer activity against human QGP-1 cells assessed as cell growth inhibition; assay type: functional, cell-based
[10] = Anticancer activity against human Leucocyte assessed as cell break at 2 x 10^-9M measured after 12 hrs; assay type: functional; conditions: dose 2 10^-9M
[11] = system: HGC-27; experiment: Anticancer activity against human HGC-27 cells assessed as cell growth inhibition measured after 24 hrs by CCK-8 assay; assay type: functional, cell-based; conditions: HGC-27, 24 h
[12] = system: A-375; experiment: Anticancer activity against human A-375 cells assessed as cell growth inhibition measured after 24 hrs by MTT assay; assay type: functional, cell-based; conditions: A-375, 24 h
[13] = system: Plasmodium berghei; experiment: Antimalarial activity against Plasmodium berghei assessed as reduction in parasite growth; assay type: functional, organism-based
[14] = system: Streptococcus iniae; experiment: Potency index, ratio of oxytetracycline MIC to test compound MIC for antibacterial activity against Streptococcus iniae FP 5228; assay type: functional
[15] = system: Streptococcus iniae; experiment: Antibacterial activity against Streptococcus iniae FP 5228 assessed as bacterial growth inhibition; assay type: functional
[16] = system: Caco-2; experiment: Anticancer activity against human Caco-2 cells assessed as cell growth inhibition measured after 72 hrs by MTT assay; assay type: functional, cell-based; conditions: Caco-2, 72 h
[17] = system: Plasmodium falciparum; experiment: Antimalarial activity against Plasmodium falciparum NF 54 clone A1A9 assessed as reduction in parasite growth measured after 24 hrs by 3[H]-hypoxanthine incorporation assay; assay type: functional, organism-based; conditions: NF 54 clone A1A9, 24 h
[18] = system: Plasmodium berghei; experiment: Antimalarial activity against Plasmodium berghei ANKA assessed as reduction in parasite growth measured after 24 hrs by 3[H]-hypoxanthine incorporation assay; assay type: functional, organism-based

C[C@@]1(C(=O)O)[C@@H](O)CC[C@]2(C)c3cc4c5ccccc5n(-n5c6ccccc6c6cc7c(cc65)CC[C@H]5[C@](C)(C(=O)O)[C@@H](O)CC[C@]75C)c4cc3CC[C@@H]12 (stereo in doubt; 66) gave an MIC ([1]; Staphylococcus aureus, ATCC 29213, read-out: MIC) of 8 µg/mL (≈ 11 µM), an MIC ([2]; Bacillus thuringiensis, SCSIO BT01, read-out: MIC) of 4 µg/mL (≈ 5.52 µM) and an MIC ([3]; Escherichia coli, ATCC 25922, read-out: MIC) of 8 µg/mL (≈ 11 µM). The MIC ([4]; Bacillus subtilis, SCSIO BS01, read-out: MIC) was 16 µg/mL (≈ 22.1 µM).
C[C@@]1(C(=O)O)[C@@H](O)CC[C@]2(C)c3cc4c5ccccc5n(-n5c6ccccc6c6cc7c(cc65)CC[C@H]5[C@](C)(C(=O)O)[C@@H](O)CC[C@]75C)c4cc3CC[C@@H]12 (stereo in doubt; 67) gave an MIC [1] of 16 µg/mL (≈ 22.1 µM), an MIC [2] of 8 µg/mL (≈ 11 µM) and an MIC [3] of 8 µg/mL (≈ 11 µM). The MIC [4] was 16 µg/mL (≈ 22.1 µM).
For COC(=O)[C@@]12Oc3cc(C)c(-c4c(C)cc5c(c4O)C(=O)C4C(O)=CC[C@@H](O)[C@]4(C(=O)OC)O5)c(O)c3C(=O)C1=C(O)CC[C@H]2O (stereo in doubt; 4), the IC50 [5] was 2.1 µM and the IC50 [6] was 6 µM.
For O=C(c1ccccc1O)c1[nH]c(Cl)c(Cl)c1-n1c(C(=O)c2ccccc2O)cc(Cl)c1Cl, the MIC90 [7] was 0.61 µM (≈ 0.311 µg/mL) and the IC50 [8] was 8.8 µM.
Compound COC(=O)c1cc(-c2cccc(OC)c2)n(-n2c(-c3ccc4ccccc4c3)cc(C(=O)OC)c2C)c1C has an IC50 [9] of 18.7 µg/mL (≈ 36.8 µM).
In the case of COC1=C(N)C(=O)c2nc(-c3nc(C(=O)O)c(C)c(-c4ccc(OC)c(OC)c4O)c3N)ccc2C1=O [STREPTONIGRIN], the Activity [10] is reported as 2.82.
For O=C(c1ccccc1O)c1[nH]c(Cl)c(Cl)c1-n1c(Cl)c(Cl)c(Br)c1C(=O)c1ccccc1O, the MIC90 [7] was 1.1 µM (≈ 0.648 µg/mL) and the IC50 [8] was 9 µM.
COC(=O)[C@@]12Oc3cc(C)c(-c4c(C)cc5c(c4O)C(=O)C4C(O)=CC[C@@H](O)[C@]4(C(=O)OC)O5)c(O)c3C(=O)C1=C(O)CC[C@H]2O (stereo in doubt; 5) gave an IC50 [5] of 0.7 µM and an IC50 [6] of 18 µM.
For c1ccc(C(OCCN2CCCCC2)c2ccccc2)cc1 [PERASTINE], the IC50 [11] was 14.4 µM.
COC(=O)c1cc(-c2ccccc2)n(-n2c(-c3ccc4c(c3)OCO4)cc(C(=O)OC)c2C)c1C gave an IC50 [9] of 18.7 µg/mL (≈ 39.6 µM).
In the case of COc1ccc2ccc(O)c(-c3c(Br)c(C4CC4)nn3P(=O)(c3ccccc3)c3ccccc3)c2c1, the IC50 [12] is reported as 2.57 µM.
Compound COc1cc(C)cc2c(-c3c(O)cc(O)c4c3C[C@@H](C)N[C@@H]4C)ccc(O)c12 [KORUPENSAMINE A] has an IC50 [13] of 0.56 µg/mL (≈ 1.48 µM).
With COC(=O)C[C@@H]1Cc2cc3c(-c4c(OC)cc(O)c5c(O)c6c(cc45)C[C@@H](CC(=O)OC)OC6=O)c(OC)cc(O)c3c(O)c2C(=O)O1 the Ratio [14] was 100 and the MIC [15] was 0.31 µg/mL (≈ 0.468 µM).
O=C1N[C@@H]2[C@H]3NC(=O)[C@@H]4Cc5cc6ccccc6n5-n5cc(c6ccccc65)C[C@@H]1N[C@H]2[C@@H]3N4 showed an IC50 [16] of 76 µM.
COc1cc(C)c(-c2ccc(O)c3c2C[C@@H](C)N[C@@H]3C)c2cccc(O)c12 [DIONCOPHYLLINE C] gave an IC50 [17] of 0.014 µg/mL (≈ 0.0385 µM) and an IC50 [18] of 0.015 µg/mL (≈ 0.0413 µM).
In the case of COC(=O)c1cc(-c2ccc(F)cc2)n(-n2c(C(=O)OC)cc3ccccc32)c1C, the IC50 [9] is reported as 18.7 µg/mL (≈ 46.1 µM).
For CN(C)[C@@H]1C(O)=C(C(N)=O)C(=O)[C@@]2(O)C(O)=C3C(=O)c4c(O)cccc4[C@@](C)(O)[C@H]3[C@H](O)[C@@H]12 [OXYTETRACYCLINE], the MIC [15] was 40 µg/mL (≈ 86.9 µM).

Source: ChEMBL document CHEMBL5331048, “Recent progress toward developing axial chirality bioactive compounds” (Eur J Med Chem, 2022)
